Data on four compounds can be found in patent US11078236B2, “Selenium-based therapies” (Burke Neurological Institute, priority 2017, dated 2021).

The subject of data set [1] is GPX4 and other selenoprotein genes. Kind of data set: Quantitative PCR of antioxidant/selenoprotein genes in neurons. In kind it is cell-based, mice or rats. The method, then:
(§1) Total RNA was prepared using the NucleoSpin RNA II kit (MACHEREYNAGEL) according to the manufacturer's protocol. Duplex real-time PCR reactions were performed with gene expression assays using 6-carboxyfluorescein-labeled probes (Applied Biosystems) for antioxidant enzymes. All expression levels were normalized to β-actin gene expression levels, which were determined with a VIC-labeled probe (Applied Biosystems). All experiments were performed using a Quant 6 Real-Time PCR System (Applied Biosystems).
(§2) Primary cortical neurons were obtained from either embryonic (E15) CD1 mice or embryonic (E17) Sprague-Dawley rats. Briefly, cortices were dissected, homogenized, and plated in minimum essential medium containing 10% fetal bovine serum (FBS), 5% horse serum, and 1% penicillin/streptomycin in 96-well plates, 6-well plates, or 10-cm dishes. Neurons were maintained at 37° C. with 5% CO2. All experiments were started at 24 hours after plating.

The next data set has as its system GPX4-deficient neurons. Kind of data set: Survival of neurons with siRNA knockdown of GPX4. The class given is cell-based, mice or rats. To be noted: 50 μM NAC, siGPX4. The source says:
Knock down of GPX4 was achieved by using lipofectamine RNAimax (Thermo-Fisher) to transfect primary cortical neurons with specific siRNA against GPX4. Three different sequences of siRNA were used separately to validate target specificity as opposed to sequence specificity. Knockdown was validated by mRNA and protein.

In data set [2] the test system is primary cortical neurons. Put plainly: In vitro ICH model: hemin-induced ferroptosis, MTT survival and Live/Dead assay. Particulars: for toxicity / therapeutic window in cultured neurons: in vitro, increasing concentrations. In kind it is cell-based, mice or rats. The method, then:
as §2
Cell death was induced in primary cortical neurons and hippocampal HT22 cells by treatment with hemin ([…]; Sigma). For the neuroprotection studies, cells were treated with 80 μM hemin in the presence of sodium selenite (Sigma) diluted in water. Cell viability was analyzed 16 hours after treatment. Cells were rinsed with warm phosphate-buffered saline (PBS) and assessed by MTT assay. The fidelity of MTT assays in measuring viability was verified by calcein-AM/ethidium homodimer-1 staining (Live/Dead assay, Molecular Probes) following the manufacturer's instructions.

Data set [3] relates to GPX4 and selenoprotein mRNA in striatum. The class given is in vivo, mouse. Particulars: ICV injection. The procedure:
FIG. 5A is a schematic showing ICV injection of dose dependent Se (1-5 μM) and collection of striatum 6 hours later to extract RNA for quantitative PCR.
Male C57BL/6 mice (8 to 10 weeks of age; Charles River) were anesthetized with isoflurane (2 to 5%) and placed on a stereotaxic frame. During the procedure, the animal's body temperature was maintained at 37° C. with a homeothermic blanket. With a nanomite syringe pump (Harvard Apparatus) and a Hamilton syringe, […] of collagenase (0.075 IU; Sigma) was infused into the right striatum at a flow rate of 0.120 ml/min. Relative to the bregma point, the stereotaxic coordinates of the injection were as follows: lateral, −0.20; anteroposterior, 0.62; and dorsoventral, −0.40. In control animals, […] of saline was infused. The treatment group received sodium selenite (1-5 μM) 2 hours after collagenase infusion directly into the ventricals. The control groups received vehicle (saline) alone. The animals were randomized to sham or ICH groups. The identity of the mice that received vehicle or Se was masked to surgeons who performed the ICH. […]
Total RNA was prepared using the NucleoSpin RNA II kit (MACHEREYNAGEL) according to the manufacturer's protocol. […] All expression levels were normalized to β-actin gene expression levels, which were determined with a VIC-labeled probe (Applied Biosystems). […]

Data set [4] can be described thus: ICP-MS measurement of selenium levels. Set-up: species or system mouse. Particulars: in vitro and in vivo after Se treatment. The procedure: FIG. 2M is a graph showing inductively coupled mass spectrometry (ICP-MS) measurement of selenium levels normalized to protein concentration in cortical neurons treated with 80 μM hemin and/or Se.
FIG. 5D is a graph showing inductively coupled mass spectrometry (ICP-MS) measurement of selenium levels normalized to protein concentration following ICH and ICH+2.5 μM Se in striatum at 24 h post treatment (n=8).

Data set [5] relates to primary cortical neurons. Kind of data set: Oxidative stress-induced neuronal death: HCA-induced ferroptosis, MTT survival. The class given is cell-based, mice or rats. To be noted: HCA 5 mM, survival at 24 h. The method, then:
as §2
Primary cortical neurons and HT22 cells were exposed to 5 mM HCA (glutamate structural analog) to induce oxidative stress-induced cell death, and sodium selenite (Sigma) was applied in media. 24 hours after treatment with HCA, the cells were rinsed with warm PBS, and cell viability was assessed by MTT assay (Life Technologies) and calcein-AM/ethidium homodimer-1 staining (Live/Dead assay, Molecular Probes).

Data set [6] deals with collagenase mouse model of ICH. Put plainly: Collagenase-induced mouse model of ICH: behavior, fluorojade, immunofluorescence. The class given is in vivo. The method, then:
Male C57BL/6 mice (8 to 10 weeks of age; Charles River) were anesthetized with isoflurane (2 to 5%) and placed on a stereotaxic frame. During the procedure, the animal's body temperature was maintained at 37° C. with a homeothermic blanket. With a nanomite syringe pump (Harvard Apparatus) and a Hamilton syringe, […] of collagenase (0.075 IU; Sigma) was infused into the right striatum at a flow rate of 0.120 ml/min. Relative to the bregma point, the stereotaxic coordinates of the injection were as follows: lateral, −0.20; anteroposterior, 0.62; and dorsoventral, −0.40. In control animals, […] of saline was infused. […] The control groups received vehicle (saline) alone. The animals were randomized to sham or ICH groups. The identity of the mice that received vehicle or Se was masked to surgeons who performed the ICH. […] Proper postoperative care was taken until the animals recovered completely.
The corner task assessed the integrated sensorimotor function in both stimulation of vibrissae (sensory neglect) and rearing (motor response) (See Schallert et al., Neuropharmacology 39(5): p. 777-87 (2000)). Mice were placed between two cardboard pieces forming a corner with a 30° angle. While maintaining the 30° angle, the boards were gradually moved toward the mouse until the mouse approached the corner, reared upward, and turned 180° to face the open end. The direction (left or right) in which the mouse turned around was recorded for each trial. Ten trials were performed for each mouse. The adhesive tape removal task in mice was performed as previously described. Briefly, adhesive tape was placed on the planter region of the forward paw (right and left) of mice. The time from which the tape was applied to when the mouse successfully removed it was recorded for each paw. A maximum of 300 s for each paw was allowed.
For immunocytochemical experiments in the brain, three control mice with induced unilateral stroke and three selenium-treated mice with induced unilateral stroke were perfusion fixed with 4% PFA in PBS for 15 min. The brains were isolated and postfixed for 1 h in 4% PFA. After cryoprotection in a sucrose gradient, brain sections were cut at 30 μm.
Free-floating brain sections were blocked for 1 h in a PBS solution containing 3% bovine serum (Sigma), and 0.5% Triton X-100 (Biorad). Primary antibodies were diluted in the same solution and applied for 12 h, followed by incubation for 1 h with the appropriate secondary antibody, conjugated to Alexa 488 (1:1000; green fluorescence, Molecular Probes) or Alexa 568 (1:1000; red fluorescence, Molecular Probes). For nuclear labeling, ToPro was added to the mixture (1:15000, far red fluorescence, Invitrogen, T3605). […]

A further data set concerns GPX4 mRNA. Put plainly: GPX4 mRNA in organs after intraperitoneal injection of peptides. The class given is in vivo, mouse. To be noted: 12 μg/g intraperitoneal, 24 h. The procedure: FIG. 69B quantifies GPX4 mRNA levels 24 h following IP injection of SelPep (4-12 μg/g; n=3) in the striatum, cortex, heart or liver.
as §1

[7] abbreviates: 12 μg/g IP from 2 h post-ICH, daily for 7 days, from day 3, significant by day 14.

“Also recorded” adds a separate entry of the source. Starred links: 1 amine or outer side, 2 acyl side, 3 side chain; linkers in the order of their positions; H or OH if unused. Positions of bridges follow the written chain, without caps; N, C: chain ends. Non-standard residues stand in square brackets, D forms with d. Residues, ends and D or L forms follow the SMILES beside them. Chains are numbered I, II in the order given. Actinocin(9to1) = Cc1c2oc3c(C)ccc(C(=O)[*:1])c3nc-2c(C(=O)[*:2])c(N)c1=O; NMeV = CN[C@H](C(=O)O)C(C)C; Sec = N[C@@H](C[SeH])C(=O)O; Sar = CNCC(=O)O

On to `CC(=O)N[C@@H](CS)C(=O)O` [NAC, N-acetylcysteine], for which the “effect on GPX4 expression” value in data set [1] (50 μM NAC) was “no effect on GPX4 mRNA levels; also recorded: without affecting GPX4 expression”. In addition, the “survival of GPX4-deficient neurons” value in the data set with GPX4-deficient neurons was “prevents cell death due to GPX4 molecular depletion; also recorded: protected GPX4-deficient neurons; also recorded: prevents cell death due to GPX4 knockdown”.
With `O=[Se](O)O` [Se, Sodium selenite], in the data set with primary cortical neurons [2], the “toxicity / therapeutic window in cultured neurons” value was “parabolic dose response with a narrow therapeutic window”. Moreover, in data set [3] (any concentration (1-5 μM)), the “toxicity or death in mice” value is recorded as “no toxicity or death”. Moreover, the “optimal Se concentration for inducing selenoprotein expression” value in data set [3] (uninjured mice, striatum 6 h later) is 2.5 µM. Also, the “selenium levels by ICP-MS” value in data set [4] was “significant increases in cellular selenium”.
For `CC(C)C[C@H](NC(=O)[C@H](CC(N)=O)NC(=O)[C@H](C[SeH])NC(=O)[C@H](CCCCN)NC(=O)[C@H](C[SeH])NC(=O)[C@H](CCCCN)NC(=O)[C@H](CCCNC(=N)N)NC(=O)[C@H](CCCNC(=N)N)NC(=O)[C@H](CCCNC(=N)N)NC(=O)[C@H](CCC(N)=O)NC(=O)[C@H](CCCNC(=N)N)NC(=O)[C@H](CCCNC(=N)N)NC(=O)[C@H](CCCCN)NC(=O)[C@H](CCCCN)NC(=O)[C@H](CCCNC(=N)N)NC(=O)CNC(=O)[C@@H](N)Cc1ccc(O)cc1)C(=O)N[C@@H](CC(N)=O)C(N)=O` [Tat-SelPep] (H-YGRKKRRQRRRK[Sec]K[Sec]NLN-NH2), the “single cell analysis of cell viability and death (live/dead)” value with primary cortical neurons [2] (hemin 80 μM, 16 h, 1 μM peptide) is “prevented hemin induced ferroptosis and completely preserved cell bodies and neurites of neurons”. Moreover, in the data set on primary cortical neurons [2] (hemin 80 μM, survival at 16 h, MTT), the “protection from hemin-induced ferroptosis” value is “concentration dependent protection”. Further, the “toxicity / therapeutic window in cultured neurons” value with primary cortical neurons [2] is reported as “wide therapeutic window with no apparent toxicity”. Besides, the “protection from HCA-induced ferroptosis” value in the data set with primary cortical neurons [5] was “concentration dependent protection”. For the same compound, the “GPX4, SeIP, TXNRD1, GPX3 and SelK mRNA” value in data set [1] (1 μM peptide, 6 h post-treatment) is on record as “induced significant increases”. Besides, the “cell death measured by Fluoro-Jade staining” value in data set [6] (12 μg/g IP from 2 h post-ICH, daily for 7 days) is on record as “reduced cell death”. Moreover, in data set [6] (setting [7]), the sensory neglect task entry is given as “improved” and the spatial neglect task entry is reported as “improved”. Moreover, in data set [6] (AAV8-mSp1 in striatum, 12 μg/g IP, day 14 post-stroke), the “behavior outcomes in animals overexpressing mSp1” value was “fail to demonstrate significant behavior improvements”. The “GPX4 expression in heart, liver, striatum and cortex” value in the data set with GPX4 mRNA was “induced significant expression of GPX4”.
As for `Cc1c2oc3c(C)ccc(C(=O)N[C@@H]4C(=O)N[C@H](C(C)C)C(=O)N5CCC[C@H]5C(=O)N(C)CC(=O)N(C)[C@@H](C(C)C)C(=O)O[C@@H]4C)c3nc-2c(C(=O)N[C@@H]2C(=O)N[C@H](C(C)C)C(=O)N3CCC[C@H]3C(=O)N(C)CC(=O)N(C)[C@@H](C(C)C)C(=O)O[C@@H]2C)c(N)c1=O` [actinomycin-D] (I: T[dV]P[Sar][NMeV] / II: T[dV]P[Sar][NMeV]; ester I:1-I:C, II:1-II:C; linker I:N-II:N via Actinocin(9to1)), the “protection against hemin toxicity induced by Se” value in the data set with primary cortical neurons [2] (co-treatment with transcription inhibitor, MTT) is “abrogated protection; also recorded: abolished protection against hemin toxicity”. Also, the “Se-dependent increase in GPX4 mRNA” value in data set [1] (co-treatment with transcription inhibitor) is recorded as “inhibited Se-dependent increase in GPX4 mRNA”.
